Laboratory results taken from ChEMBL document CHEMBL2057203, “Synthesis and evaluation of novel F-18 labeled 4-aminoquinazoline derivatives: potential PET imaging agents for tumor detection” (Bioorg Med Chem Lett, 2012).

Assays:
[1] = Chemical stability in PBS after 2 hrs by radio-HPLC analysis at room temperature; format: physicochemical; conditions: buffer
Blood [2] = experiment: Biodistribution in S180 tumor-bearing mouse blood at 8 to 10 uCi, iv after 60 mins by gamma counting; format: ADME, organism-based; conditions: in vivo, 1 h
Nucleic Acid [3] = experiment: Ratio of drug level in tumor to muscle in S180 tumor-bearing mouse at 8 to 10 uCi, iv at 5 mins by gamma counting; format: ADME, organism-based; conditions: in vivo
Nucleic Acid [4] = experiment: Ratio of drug level in tumor to muscle in S180 tumor-bearing mouse at 8 to 10 uCi, iv at 30 mins by gamma counting; format: ADME, organism-based; conditions: in vivo, 0.5 h
Kidney [5] = experiment: Biodistribution in S180 tumor-bearing mouse kidney at 8 to 10 uCi, iv after 30 mins by gamma counting; format: ADME, organism-based; conditions: in vivo, 0.5 h
Blood [6] = experiment: Biodistribution in S180 tumor-bearing mouse blood at 8 to 10 uCi, iv after 5 mins by gamma counting; format: ADME, organism-based; conditions: in vivo
Stomach [7] = experiment: Biodistribution in S180 tumor-bearing mouse stomach at 8 to 10 uCi, iv after 60 mins by gamma counting; format: ADME, organism-based; conditions: in vivo, 1 h
Muscle tissue [8] = experiment: Biodistribution in S180 tumor-bearing mouse muscle at 8 to 10 uCi, iv after 120 mins by gamma counting; format: ADME, organism-based; conditions: in vivo, 2 h
Nucleic Acid [9] = experiment: Ratio of drug level in tumor to brain in S180 tumor-bearing mouse at 8 to 10 uCi, iv at 30 mins by gamma counting; format: ADME, organism-based; conditions: in vivo, 0.5 h
Nucleic Acid [10] = experiment: Ratio of drug level in tumor to blood in S180 tumor-bearing mouse at 8 to 10 uCi, iv at 120 mins by gamma counting; format: ADME, organism-based; conditions: tumour, 2 h
Stomach [11] = experiment: Biodistribution in S180 tumor-bearing mouse stomach at 8 to 10 uCi, iv after 30 mins by gamma counting; format: ADME, organism-based; conditions: in vivo, 0.5 h
Nucleic Acid [12] = experiment: Ratio of drug level in tumor to blood in S180 tumor-bearing mouse at 8 to 10 uCi, iv at 60 mins by gamma counting; format: ADME, organism-based; conditions: tumour, 1 h
Nucleic Acid [13] = experiment: Ratio of drug level in tumor to brain in S180 tumor-bearing mouse at 8 to 10 uCi, iv at 5 mins by gamma counting; format: ADME, organism-based; conditions: in vivo
Mus musculus [14] = experiment: Biodistribution in S180 cells xenografted in mouse tumor at 8 to 10 uCi, iv after 30 mins by gamma counting; format: ADME, organism-based, Neoplasm, CCRF S-180; conditions: in vivo, 0.5 h
Nucleic Acid [15] = experiment: Ratio of drug level in tumor to blood in S180 tumor-bearing mouse at 8 to 10 uCi, iv at 30 mins by gamma counting; format: ADME, organism-based; conditions: tumour, 0.5 h
Blood [16] = experiment: Biodistribution in S180 tumor-bearing mouse blood at 8 to 10 uCi, iv after 30 mins by gamma counting; format: ADME, organism-based; conditions: in vivo, 0.5 h
Spleen [17] = experiment: Biodistribution in S180 tumor-bearing mouse spleen at 8 to 10 uCi, iv after 30 mins by gamma counting; format: ADME, organism-based; conditions: in vivo, 0.5 h
Nucleic Acid [18] = experiment: Ratio of drug level in tumor to muscle in S180 tumor-bearing mouse at 8 to 10 uCi, iv at 60 mins by gamma counting; format: ADME, organism-based; conditions: in vivo, 1 h
[19] = Chemical stability in PBS after 2 hrs by radio-HPLC analysis at 60 degC; format: physicochemical; conditions: buffer
Liver [20] = experiment: Biodistribution in S180 tumor-bearing mouse liver at 8 to 10 uCi, iv after 30 mins by gamma counting; format: ADME, organism-based; conditions: in vivo, 0.5 h
Mus musculus [21] = experiment: Biodistribution in S180 cells xenografted in mouse tumor at 8 to 10 uCi, iv after 60 mins by gamma counting; format: ADME, organism-based, Neoplasm, CCRF S-180; conditions: in vivo, 1 h
Spleen [22] = experiment: Biodistribution in S180 tumor-bearing mouse spleen at 8 to 10 uCi, iv after 5 mins by gamma counting; format: ADME, organism-based; conditions: in vivo
Heart = experiment: Biodistribution in S180 tumor-bearing mouse heart at 8 to 10 uCi, iv after 60 mins by gamma counting; format: ADME, organism-based; conditions: in vivo, 1 h
Plasma = experiment: Metabolic stability in mouse plasma after 2 hrs by radio-HPLC analysis; format: ADME, cell-free
Muscle tissue [23] = experiment: Biodistribution in S180 tumor-bearing mouse muscle at 8 to 10 uCi, iv after 30 mins by gamma counting; format: ADME, organism-based; conditions: in vivo, 0.5 h
Kidney [24] = experiment: Biodistribution in S180 tumor-bearing mouse kidney at 8 to 10 uCi, iv after 120 mins by gamma counting; format: ADME, organism-based; conditions: in vivo, 2 h
Brain = experiment: Biodistribution in S180 tumor-bearing mouse brain at 8 to 10 uCi, iv after 5 mins by gamma counting; format: ADME, organism-based; conditions: in vivo
Liver [25] = experiment: Biodistribution in S180 tumor-bearing mouse liver at 8 to 10 uCi, iv after 120 mins by gamma counting; format: ADME, organism-based; conditions: in vivo, 2 h

COc1cc2ncnc(Nc3ccc(F)c(Cl)c3)c2cc1OCC[18F]
Stability [1]: Stable | Drug uptake (Blood [2]): 5.07 % ID/g | Ratio (Nucleic Acid [3]): 0.37 | Ratio (Nucleic Acid [4]): 1.39 | Drug uptake (Kidney [5]): 5.2 % ID/g | Drug uptake (Blood [6]): 7 % ID/g | Drug uptake (Stomach [7]): 4.44 % ID/g | Drug uptake (Muscle tissue [8]): 1.74 % ID/g | Ratio (Nucleic Acid [9]): 1.84 | Ratio (Nucleic Acid [10]): 1.3 | Drug uptake (Stomach [11]): 11.87 % ID/g | Ratio (Nucleic Acid [12]): 1.09 | Ratio (Nucleic Acid [13]): 0.95 | Drug uptake (Mus musculus [14]): 5.8 % ID/g | Ratio (Nucleic Acid [15]): 0.99 | Drug uptake (Blood [16]): 5.85 % ID/g | Drug uptake (Spleen [17]): 3.67 % ID/g | Ratio (Nucleic Acid [18]): 1.64 | Stability [19]: Stable | Drug uptake (Liver [20]): 5.38 % ID/g | Drug uptake (Mus musculus [21]): 5.51 % ID/g | Drug uptake (Spleen [22]): 4.5 % ID/g | Drug uptake (Heart): 4.26 % ID/g | Stability (Plasma): Stable | Drug uptake (Muscle tissue [23]): 4.18 % ID/g | Drug uptake (Kidney [24]): 2.23 % ID/g | Drug uptake (Brain): 1.97 % ID/g | Drug uptake (Liver [25]): 2.58 % ID/g
